The target of assay [1] is T1, PPARγ (Homo sapiens, UniProt P37231).
T1 sequence (P37231 1-505): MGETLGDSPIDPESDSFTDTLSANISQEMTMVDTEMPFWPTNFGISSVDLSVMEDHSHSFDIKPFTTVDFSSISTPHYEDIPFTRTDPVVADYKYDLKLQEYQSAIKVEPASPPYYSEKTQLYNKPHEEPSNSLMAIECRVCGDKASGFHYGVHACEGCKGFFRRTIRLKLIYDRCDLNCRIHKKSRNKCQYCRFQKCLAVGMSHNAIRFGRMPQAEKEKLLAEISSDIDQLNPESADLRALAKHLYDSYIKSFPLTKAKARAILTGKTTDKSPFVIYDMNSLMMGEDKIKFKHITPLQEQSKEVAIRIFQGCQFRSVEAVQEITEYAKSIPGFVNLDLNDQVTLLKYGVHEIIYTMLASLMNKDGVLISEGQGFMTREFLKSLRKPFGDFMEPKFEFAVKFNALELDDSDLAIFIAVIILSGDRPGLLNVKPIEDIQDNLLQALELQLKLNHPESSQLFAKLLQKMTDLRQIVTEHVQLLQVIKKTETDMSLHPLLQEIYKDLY
T1 sequence (P19793 1-462 partner): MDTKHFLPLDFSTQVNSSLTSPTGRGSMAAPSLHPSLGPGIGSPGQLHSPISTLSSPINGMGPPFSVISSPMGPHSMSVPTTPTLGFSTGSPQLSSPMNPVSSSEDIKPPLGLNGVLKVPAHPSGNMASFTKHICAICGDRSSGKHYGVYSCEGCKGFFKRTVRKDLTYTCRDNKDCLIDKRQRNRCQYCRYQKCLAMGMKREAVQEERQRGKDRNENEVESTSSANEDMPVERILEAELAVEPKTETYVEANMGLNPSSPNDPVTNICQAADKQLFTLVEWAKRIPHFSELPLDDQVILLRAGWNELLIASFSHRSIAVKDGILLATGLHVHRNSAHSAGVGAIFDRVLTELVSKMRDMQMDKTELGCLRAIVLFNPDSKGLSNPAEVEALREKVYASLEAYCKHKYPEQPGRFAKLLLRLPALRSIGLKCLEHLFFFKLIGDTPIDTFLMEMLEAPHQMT
As to the kind of experiment: PPARγ binding assay (SPA). Set-up: made in house; host or cells: HEK293 (cell lysates). How it is done: (§1) Because GPR40 is known to be activated by ligands to PPARγ, the exemplified compound is examined in PPARα, PPARδ, and PPARγ binding and functional assays to determine the selectivity of the compound of Example 1 for GPR40.
(§2) Binding affinities of the compound for the PPAR α, δ, and γ receptors are assessed using Scintillation Proximity Assay (SPA) technology. Biotinylated oligonucleotide Direct Repeat 2 (DR2) is used for binding the receptors to Yttrium silicate streptavidin-coated SPA beads. PPAR α, δ, γ and retinoid X receptor (RXR) α are over expressed in HEK293 cells, and cell lysates containing the specific receptors are used in the individual assays. The DR2 is attached to the SPA beads over a 30 minute period in a binding buffer containing 10 mM HEPES pH 7.8, 80 mM KCl, 0.5 mM MgCl2, 1 mM DTT, 0.5% 3[(3-cholamidopropyl)dimethylammonio]-propanesulfonic acid (CHAPS), and 4.4% bovine serum. […] Non-specific binding is determined in the presence of 10,000 nM of the unlabeled PPAR α/δ dual agonist reference compound for the alpha and delta receptor assays and the PPARγ agonist reference compound for the gamma receptor assay. The binding reaction (100 μl per well in a 96 well [Costar 3632] plate) is incubated for 10 h and counted disintegration per minutes (dpm) on a Wallac Microbeta. Receptor binding affinity (IC50) for the compound is determined by fitting an 11 point concentration-response curve with a 4-parameter logistic equation. Ki is determined from the IC50 using the Cheng-Prussoff equation and Kd determined by saturation binding. […]

Assay [2] deals with T2, PPARδ (Homo sapiens, UniProt Q03181).
T2 construct: made in house; host or cells: HEK293 (cell lysates)
T2 sequence (Q03181 1-441): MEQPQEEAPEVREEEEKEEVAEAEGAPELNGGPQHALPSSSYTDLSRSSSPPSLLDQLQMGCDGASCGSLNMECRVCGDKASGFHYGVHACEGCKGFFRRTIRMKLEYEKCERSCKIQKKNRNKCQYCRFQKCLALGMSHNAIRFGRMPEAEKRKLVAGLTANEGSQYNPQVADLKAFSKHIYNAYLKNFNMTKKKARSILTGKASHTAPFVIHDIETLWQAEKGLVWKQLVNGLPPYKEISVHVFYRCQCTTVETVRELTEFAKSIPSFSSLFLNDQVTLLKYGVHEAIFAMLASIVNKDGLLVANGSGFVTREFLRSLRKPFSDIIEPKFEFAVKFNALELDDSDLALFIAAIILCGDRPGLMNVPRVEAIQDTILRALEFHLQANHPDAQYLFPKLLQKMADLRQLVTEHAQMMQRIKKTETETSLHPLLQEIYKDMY
T2 sequence (P19793 1-462 partner): T1 sequence (P19793 1-462 partner)
As to the kind of experiment: PPARδ binding assay (SPA). How it is done: as §1, §2

Setting [3] is: tested up to 30 μM, read-out: relative IC50.
Where [4] appears, read: with 10 μM concentrations of test compound.

On to `CC#C[C@@H](CC(=O)O)c1ccc(OCc2ccc(CN3CCCc4cccc(OC)c43)s2)cc1` [Example 1, (3S)-3-[4-[[5-[(8-Methoxy-3,4-dihydro-2H-quinolin-1-yl)methyl]-2-thienyl]methoxy]phenyl]hex-4-ynoic acid], for which the binding result in assay [1] (concentrations up to 10 μM) and in assay [2] (concentrations up to 10 μM) was “no binding is detected” throughout. The 50% inhibitory concentration (IC50) in assay [1] (setting [3]) and in assay [2] (setting [3]) was above 10 µM throughout. The PPAR binding values entry in assay [1] (setting [4]) and in assay [2] (setting [4]) was “greater than 1000 nM” in each case.

Source of the values: patent publication US8431706B2, “1,2,3,4-tetrahydroqinoline derivative useful for the treatment of diabetes” (Eli Lilly and Company, priority 2011, dated 2013).
